Our source for the EC50 values is patent US9957267B2, “Somatostatin modulators and uses thereof” (Crinetics Pharmaceuticals, Inc., priority 2015, dated 2018).

Some results are limits rather than exact numbers.

Common to all, as to assay type: cell-based
For one experiment, the target named is T1, SSTR4 (Homo sapiens, UniProt P31391).
T1 construct: expressed in transfected cells
In words: cAMP functional agonist assay, CHO cells expressing SSTR4. As to conditions: CHO cells stably expressing SSTR4, cAMP; read-out: SSTR4 EC50. The method, then: (§1) Chinese hamster ovary (CHO) cells stably expressing one of the six human or rodent somatostatin receptor subtypes are grown to 85-100% confluence on standard tissue culture dishes in F12-Ham's growth media (Hyclone) with following additives: 10% donor calf serum (Hyclone), 200 U/mL penicillin (Hyclone), 200 μg/mL streptomycin (Hyclone), 20 mM HEPES (Hyclone), 200 μg/mL hygromycin Hyclone.
(§2) General overview: All SSTR subtypes are Gi coupled G-protein coupled receptors (GPCRs) that lead to decreases in intracellular cyclic AMP (cAMP) when activated by an agonist. […] One example of an intracellular cAMP assay is described below.

Experiment [1] has as its target T2, human somatostatin receptor subtype 2a (Homo sapiens, UniProt P30874).
T2 construct: expressed in transfected cells
The experiment is described as follows: cAMP assay for SSTR2a agonists (HTRF cAMP kit, NKH-477 stimulated). As to conditions: CHO cells stably expressing human SSTR2a, 1.6 μM NKH-477. The method, then:
as §1
(§3) General overview: All SSTR subtypes are Gi coupled G-protein coupled receptors (GPCRs) that lead to decreases in intracellular cyclic AMP (cAMP) when activated by an agonist. Therefore, measurement of intracellular cAMP levels can be used to assess whether compounds of the invention are agonists of SSTR subtypes (John Kelly, Troy Stevens, W. Joseph Thompson, and Roland Seifert, Current Protocols in Pharmacology, 2005, 2.2.1-2.2). One example of an intracellular cAMP assay is described below.
Four days prior to the assay, 5000 Chinese hamster ovary (CHO) cells stably expressing the human somatostatin receptor subtype 2a are plated in each well of a 96-well tissue culture plate (Nest Biotech Cell, flat bottom with low evaporation tissue culture treated; Polystyrene; Non-Pyrogenic) in F12-Ham's media (100 μL/well) supplemented with 200 μg/mL of hygromycin. Incubate at 37 C, 5% CO2, 95% humidity for four days. The cells should reach full confluence. On the day of the assay, various dilutions of the compounds of the invention are prepared in assay buffer (HRTF cAMP kit, Cisbio) in the presence of 1.6 μM NKH-477 (a water-soluble forskolin derivative) and 50 μL of the dilutions are added to the cultured cells and incubated for 20 minutes at 37° C. […] 50 μL of lysis buffer (HRTF cAMP kit, Cisbio) is added to each well and incubated at room temperature for 30 minutes, after which 150 μL assay buffer is added to each well. In a 384-well plate (Grenier, 784-080), 10 μL of assay mixture is added to 10 μL of developing mixture, containing cAMP detection and visualization antibodies are added and the assay is allowed incubate for 1-24 hours at room temperature. The intracellular cAMP concentrations are then measured using a commercially available detection kit (for example, the cAMP HTRF kit, Cisbio). The measured intracellular cAMP concentrations are plotted vs. the concentration of the compounds of the invention and the EC50 of the compounds are calculated using standard methods.
In general terms: cAMP levels reflect the balance of adenylyl cyclase and phosphodiesterase activity.

The next experiment has as its target T3, SSTR5 (Homo sapiens, UniProt P35346).
T3 construct: expressed in transfected cells
The experiment is described as follows: cAMP functional agonist assay, CHO cells expressing SSTR5. As to conditions: CHO cells stably expressing SSTR5, cAMP. On the procedure:
as §1, §3

Another experiment addresses T4, SSTR1 (Homo sapiens, UniProt P30872).
T4 construct: expressed in transfected cells
In words: cAMP functional agonist assay, CHO cells expressing SSTR1. Particulars: CHO cells stably expressing SSTR1, cAMP; read-out: SSTR1 EC50. On the procedure: as §1, §2

The next experiment concerns the target SSTR3 (UniProt P32745). The experiment is described as follows: cAMP functional agonist assay, CHO cells expressing SSTR3. As to conditions: CHO cells stably expressing SSTR3, cAMP. On the procedure: as §1, §3

T2 sequence (P30874 whole entry): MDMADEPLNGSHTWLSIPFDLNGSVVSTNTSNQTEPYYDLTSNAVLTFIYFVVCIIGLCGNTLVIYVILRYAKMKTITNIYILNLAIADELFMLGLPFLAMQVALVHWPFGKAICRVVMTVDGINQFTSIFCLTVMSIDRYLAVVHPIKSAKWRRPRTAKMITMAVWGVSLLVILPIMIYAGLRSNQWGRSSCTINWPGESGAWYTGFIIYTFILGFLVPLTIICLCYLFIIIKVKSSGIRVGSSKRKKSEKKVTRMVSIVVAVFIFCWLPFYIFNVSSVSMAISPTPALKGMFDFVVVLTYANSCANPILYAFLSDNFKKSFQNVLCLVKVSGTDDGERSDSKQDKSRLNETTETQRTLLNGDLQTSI
T3 sequence (P35346 whole entry): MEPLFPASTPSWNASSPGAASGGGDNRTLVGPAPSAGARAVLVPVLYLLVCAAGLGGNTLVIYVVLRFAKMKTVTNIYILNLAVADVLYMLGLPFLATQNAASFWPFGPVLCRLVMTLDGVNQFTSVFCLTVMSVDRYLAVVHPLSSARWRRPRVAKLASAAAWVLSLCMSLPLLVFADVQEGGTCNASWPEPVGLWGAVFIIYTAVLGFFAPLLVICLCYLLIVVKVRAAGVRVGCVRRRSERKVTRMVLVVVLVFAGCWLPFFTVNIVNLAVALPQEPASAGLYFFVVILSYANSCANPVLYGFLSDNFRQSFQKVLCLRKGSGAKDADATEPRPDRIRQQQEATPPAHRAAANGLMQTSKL
SSTR3, sequence (P32745 whole entry): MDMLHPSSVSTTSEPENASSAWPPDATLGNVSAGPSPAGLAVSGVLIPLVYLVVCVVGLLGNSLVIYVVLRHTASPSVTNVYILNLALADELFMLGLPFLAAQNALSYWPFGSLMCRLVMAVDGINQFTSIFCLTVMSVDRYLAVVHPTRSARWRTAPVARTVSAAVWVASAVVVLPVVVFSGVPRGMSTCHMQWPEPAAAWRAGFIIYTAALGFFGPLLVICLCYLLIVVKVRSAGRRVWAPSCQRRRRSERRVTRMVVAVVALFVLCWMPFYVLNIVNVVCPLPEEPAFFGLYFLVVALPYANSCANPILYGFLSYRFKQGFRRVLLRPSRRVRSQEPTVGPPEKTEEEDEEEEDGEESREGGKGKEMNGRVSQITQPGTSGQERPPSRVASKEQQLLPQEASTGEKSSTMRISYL
T4 sequence (P30872 whole entry): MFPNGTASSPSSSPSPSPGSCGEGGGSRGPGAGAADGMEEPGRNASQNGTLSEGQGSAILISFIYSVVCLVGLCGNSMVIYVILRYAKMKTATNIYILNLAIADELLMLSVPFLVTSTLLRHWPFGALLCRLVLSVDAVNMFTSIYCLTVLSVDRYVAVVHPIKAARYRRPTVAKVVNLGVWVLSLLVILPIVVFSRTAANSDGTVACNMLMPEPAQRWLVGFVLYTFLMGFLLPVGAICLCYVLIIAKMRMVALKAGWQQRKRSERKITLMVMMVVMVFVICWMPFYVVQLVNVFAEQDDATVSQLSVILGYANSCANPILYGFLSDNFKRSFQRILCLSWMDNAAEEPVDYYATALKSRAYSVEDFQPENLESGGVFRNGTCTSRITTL
T1 sequence (P31391 whole entry): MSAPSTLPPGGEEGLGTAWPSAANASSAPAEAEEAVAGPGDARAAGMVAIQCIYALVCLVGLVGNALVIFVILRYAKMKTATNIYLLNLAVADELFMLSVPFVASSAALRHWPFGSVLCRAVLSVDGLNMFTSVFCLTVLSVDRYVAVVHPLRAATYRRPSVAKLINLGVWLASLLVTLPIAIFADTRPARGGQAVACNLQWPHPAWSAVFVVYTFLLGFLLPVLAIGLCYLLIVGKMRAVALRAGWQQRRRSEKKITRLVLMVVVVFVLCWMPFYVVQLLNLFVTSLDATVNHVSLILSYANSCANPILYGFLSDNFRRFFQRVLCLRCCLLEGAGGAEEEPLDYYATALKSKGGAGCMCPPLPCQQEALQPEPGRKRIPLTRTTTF

As to “5-({[(2S)-2-aminobutyl](methyl)amino}methyl)-6-(3,5-dimethylphenyl)-3-[3-hydroxy-5-(trifluoromethyl)phenyl]-3H,4H-pyrido[2,3-d]pyrimidin-4-one [Compound A-63]”, the EC50 at SSTR4 was below 100 nM; in experiment [1], below 100 nM; on SSTR5, above 10000 nM; on SSTR1 it was 100 to 10000 nM; on SSTR3 it was below 100 nM.

With `CCN(CCN)Cc1c(-c2cc(C)cc(Cl)c2)cnc2ncn(-c3cc(O)cc(F)c3)c(=O)c12` [Compound A-3, 5-(((2-aminoethyl)(ethyl)amino)methyl)-6-(3-chloro-5-methylphenyl)-3-(3-fluoro-5-hydroxyphenyl)pyrido[2,3-d]pyrimidin-4(3H)-one], the EC50 at SSTR4 is below 100 nM; in experiment [1], below 100 nM; at SSTR1, above 10000 nM; at SSTR3 it was 100 to 10000 nM.

As to `CCCN(CCN)Cc1c(-c2cc(C)cc(C)c2)cnc2ncn(-c3cccc(O)c3)c(=O)c12` [Compound A-4, 5-{[(2-aminoethyl)(propyl)amino]methyl}-6-(3,5-dimethylphenyl)-3-(3-hydroxyphenyl)-3H,4H-pyrido[2,3-d]pyrimidin-4-one], the EC50 at SSTR4 was below 100 nM; in experiment [1], below 100 nM; at SSTR5 it was 100 to 10000 nM; on SSTR1 it was 100 to 10000 nM; at SSTR3, 100 to 10000 nM.

Regarding `Cc1cc(C)cc(-c2cnc3ncn(-c4cccc(O)c4)c(=O)c3c2CN(CCN)Cc2ccccc2)c1` [Compound A-5, 5-{[(2-aminoethyl)(benzyl)amino]methyl}-6-(3,5-dimethylphenyl)-3-(3-hydroxyphenyl)-3H,4H-pyrido[2,3-d]pyrimidin-4-one], the 50% effective concentration (EC50) at SSTR4 was below 100 nM; in experiment [1], 100 to 10000 nM; at SSTR5 it was above 10000 nM; at SSTR3 it was 100 to 10000 nM.

Regarding `CCN(Cc1c(-c2cc(C)cc(C)c2)cnc2ncn(-c3cccc(O)c3)c(=O)c12)C[C@H](C)N` [Compound A-9, 5-({[(2S)-2-aminopropyl](ethyl)amino}methyl)-6-(3,5-dimethylphenyl)-3-(3-hydroxyphenyl)-3H,4H-pyrido[2,3-d]pyrimidin-4-one], the EC50 at SSTR4 was below 100 nM; in experiment [1], below 100 nM; at SSTR1, 100 to 10000 nM; on SSTR3, below 100 nM.

As to `Cc1ccccc1-c1cnc2ncn(-c3cccc(O)c3)c(=O)c2c1CN(C)CC1CCCCN1` (stereo not shown) [Compound A-20, 3-(3-hydroxyphenyl)-5-{[methyl(piperidin-2-ylmethyl)amino]methyl}-6-(2-methylphenyl)-3H,4H-pyrido[2,3-d]pyrimidin-4-one], the EC50 at SSTR4 was below 100 nM; in experiment [1], 100 to 10000 nM; on SSTR5 it was above 10000 nM; on SSTR3 it was 100 to 10000 nM.

Take `Cc1cccc(-c2cnc3ncn(-c4cccc(O)c4)c(=O)c3c2CN(C)CC2CCCCN2)c1` (stereo not shown) [Compound A-21, 3-(3-hydroxyphenyl)-5-{[methyl(piperidin-2-ylmethyl)amino]methyl}-6-(3-methylphenyl)-3H,4H-pyrido[2,3-d]pyrimidin-4-one]: the EC50 on SSTR4 is below 100 nM; in experiment [1], below 100 nM; on SSTR5, above 10000 nM; at SSTR1, 100 to 10000 nM; on SSTR3 it was below 100 nM.

Consider `CN(Cc1c(-c2cccc(Cl)c2)cnc2ncn(-c3cccc(O)c3)c(=O)c12)CC1CCCCN1` (stereo not shown) [Compound A-24, 6-(3-chlorophenyl)-3-(3-hydroxyphenyl)-5-{[methyl(piperidin-2-ylmethyl)amino]methyl}-3H,4H-pyrido[2,3-d]pyrimidin-4-one], for which the EC50 was below 100 nM on SSTR4, below 100 nM in experiment [1], 100 to 10000 nM at SSTR1 and below 100 nM on SSTR3.

Consider `Cc1cc(F)cc(-c2cnc3ncn(-c4cccc(O)c4)c(=O)c3c2CN(C)CC2CCCCN2)c1` (stereo not shown) [Compound A-25, 6-(3-fluoro-5-methylphenyl)-3-(3-hydroxyphenyl)-5-{[methyl(piperidin-2-ylmethyl)amino]methyl}-3H,4H-pyrido[2,3-d]pyrimidin-4-one], for which the EC50 on SSTR4 was below 100 nM; in experiment [1], below 100 nM; at SSTR1, 100 to 10000 nM; at SSTR3, below 100 nM.

On to `Cc1c(F)cccc1-c1cnc2ncn(-c3cccc(O)c3)c(=O)c2c1CN(C)CC1CCCCN1` (stereo not shown) [Compound A-26, 6-(3-fluoro-2-methylphenyl)-3-(3-hydroxyphenyl)-5-{[methyl(piperidin-2-ylmethyl)amino]methyl}-3H,4H-pyrido[2,3-d]pyrimidin-4-one], for which the EC50 at SSTR4 is below 100 nM; in experiment [1], below 100 nM; at SSTR5, 100 to 10000 nM; on SSTR3, below 100 nM.

For `Cc1cc(Cl)cc(-c2cnc3ncn(-c4cccc(O)c4)c(=O)c3c2CN(C)C[C@@H]2CCCCN2)c1` [Compound A-29, 6-(3-chloro-5-methylphenyl)-3-(3-hydroxyphenyl)-5-({methyl[(2S)-piperidin-2-ylmethyl]amino}methyl)-3H,4H-pyrido[2,3-d]pyrimidin-4-one], the EC50 was below 100 nM at SSTR4, below 100 nM in experiment [1], 100 to 10000 nM at SSTR1 and below 100 nM on SSTR3.

`Cc1cc(CO)cc(-c2cnc3ncn(-c4cccc(O)c4)c(=O)c3c2CN(C)C[C@@H]2CCCN2)c1` [Compound A-37, 6-[3-(hydroxymethyl)-5-methylphenyl]-3-(3-hydroxyphenyl)-5-({methyl[(2S)-pyrrolidin-2-ylmethyl]amino}methyl)-3H,4H-pyrido[2,3-d]pyrimidin-4-one]: the 50% effective concentration (EC50) on SSTR4 was below 100 nM; in experiment [1] it was below 100 nM; on SSTR5, above 10000 nM; at SSTR3 it was 100 to 10000 nM.

`Cc1cc(Cl)cc(-c2cnc3ncn(-c4cc(O)cc(OC(F)(F)F)c4)c(=O)c3c2CN(C)C[C@@H]2CCCN2)c1` [Compound A-52, 6-(3-chloro-5-methylphenyl)-3-[3-hydroxy-5-(trifluoromethoxy)phenyl]-5-({methyl[(2S)-pyrrolidin-2-ylmethyl]amino}methyl)-3H,4H-pyrido[2,3-d]pyrimidin-4-one]: the EC50 at SSTR4 was below 100 nM; in experiment [1], below 100 nM; on SSTR5, above 10000 nM; on SSTR3 it was 100 to 10000 nM.

`Cc1cc(Cl)cc(-c2cnc3nc(C)n(-c4cc(F)cc(C#N)c4)c(=O)c3c2CN(C)C[C@@H]2CCCN2)c1` [Compound A-60, 3-[6-(3-chloro-5-methylphenyl)-2-methyl-5-({methyl[(2S)-pyrrolidin-2-ylmethyl]amino}methyl)-4-oxo-3H,4H-pyrido[2,3-d]pyrimidin-3-yl]-5-fluorobenzonitrile]: the EC50 on SSTR4 is below 100 nM; in experiment [1] it was below 100 nM; on SSTR1 it was 100 to 10000 nM; at SSTR3, below 100 nM.

In the case of `CC[C@H](N)CN(C)Cc1c(-c2cc(C)cc(C)c2)cnc2ncn(-c3cccc(O)c3)c(=O)c12` [Compound A-61, 5-({[(2S)-2-aminobutyl](methyl)amino}methyl)-6-(3,5-dimethylphenyl)-3-(3-hydroxyphenyl)-3H,4H-pyrido[2,3-d]pyrimidin-4-one], the EC50 at SSTR4 is below 100 nM; in experiment [1] it was below 100 nM; on SSTR5, above 10000 nM; on SSTR3, 100 to 10000 nM.

Turning to `CC[C@H](N)CN(C)Cc1c(-c2cc(C)cc(Cl)c2)cnc2ncn(-c3cc(O)cc(F)c3)c(=O)c12` [Compound A-66, 5-({[(2S)-2-aminobutyl](methyl)amino}methyl)-6-(3-chloro-5-methylphenyl)-3-(3-fluoro-5-hydroxyphenyl)-3H,4H-pyrido[2,3-d]pyrimidin-4-one], the EC50 at SSTR4 was below 100 nM; in experiment [1] it was below 100 nM; on SSTR1 it was above 10000 nM; on SSTR3, 100 to 10000 nM.

Broadly, the EC50 is the concentration that produces a half-maximal response.
